Test results from ChEMBL document CHEMBL1143771, “Isothiazoles as active-site inhibitors of HCV NS5B polymerase” (Bioorg Med Chem Lett, 2007).

Legend:
[1] = Inhibition of HCV recombinant NS5B polymerase; design: species or system Hepacivirus hominis
Hepatitis C virus = assay: Antiviral activity against Hepatitis C virus by cell based replicon assay; type: functional, organism-based, Hepacivirus hominis

IC50 [1] | EC50 (Hepatitis C virus) | SMILES
1.8 µM | – | COC(=O)c1ccc(-c2ccc(Cl)cc2Nc2snc(O)c2C#N)o1
8.3 µM | – | CCCCS(=O)(=O)c1cccc(Nc2snc(O)c2C#N)c1
6.4 µM | – | N#Cc1c(O)nsc1Nc1cc(Cl)ccc1OCc1ccc2ccccc2c1
9.7 µM | – | N#Cc1c(O)nsc1Nc1cccc(S(N)(=O)=O)c1
0.9 µM | 2.9 µM | N#Cc1c(O)nsc1Nc1cccc(F)c1
1.2 µM | – | N#Cc1c(O)nsc1Nc1ccc(F)cc1
0.3 µM | 0.22 µM | N#Cc1c(O)nsc1Nc1cc(F)cc(F)c1
0.3 µM | – | N#Cc1c(O)nsc1Nc1cc(Br)ccc1OCc1ccccc1
1.3 µM | – | N#Cc1c(O)nsc1Nc1ccccc1Oc1ccccc1
0.5 µM | 3.4 µM | N#Cc1c(O)nsc1Nc1cc(F)ccc1Oc1ccccc1
1.7 µM | – | N#Cc1c(O)nsc1Nc1cc(Br)ccc1OCc1ccc2ccccc2c1
2 µM | – | COC(=O)c1cc(Nc2snc(O)c2C#N)cc(C(F)(F)F)c1
> 100 µM | – | Cc1cc(C)cc(Nc2snc(O)c2C#N)c1
3.5 µM | – | N#Cc1c(O)nsc1Nc1cc(C(F)(F)F)cc(S(=O)(=O)NC23CC4CC(CC(C4)C2)C3)c1
0.2 µM | 0.1 µM | N#Cc1c(O)nsc1Nc1cc(Cl)cc(Cl)c1
1.5 µM | – | N#Cc1c(O)nsc1Nc1cc(C(=O)O)cc(C(F)(F)F)c1
1.4 µM | – | N#Cc1c(O)nsc1Nc1cccc(S(=O)(=O)NC23CC4CC(CC(C4)C2)C3)c1
4.7 µM | – | COC(=O)c1ccc(Cl)cc1Nc1snc(O)c1C#N
44 µM | – | N#Cc1c(O)nsc1Nc1nc2ccc(F)cc2s1
33 µM | – | N#Cc1c(O)noc1Nc1cc(Br)cc(Br)c1
0.3 µM | – | N#Cc1c(O)nsc1Nc1cc(Br)cc(C(F)(F)F)c1
1.2 µM | 1.1 µM | N#Cc1c(O)nsc1Nc1ccc(I)cc1
9.7 µM | – | CS(=O)(=O)c1cccc(Nc2snc(O)c2C#N)c1
1 µM | – | N#Cc1c(O)nsc1Nc1cc(Cl)ccc1OCc1ccccc1
1.8 µM | – | N#Cc1c(O)nsc1Nc1cc(Cl)cc(S(=O)(=O)NC23CC4CC(CC(C4)C2)C3)c1
> 100 µM | – | COc1cccc(Nc2snc(O)c2C#N)c1
5.9 µM | 2 µM | N#Cc1c(O)nsc1Nc1cc(C(F)(F)F)cc(C(F)(F)F)c1
0.7 µM | – | N#Cc1c(O)nsc1Nc1ccc(Cl)cc1Cl
